Experimental data from patent US20250241901A1, “ACTIVATION OF MNRR1 / CHCHD2 AS A THERAPEUTIC TARGET FOR MITOCHONDRIA ASSOCIATED DISORDERS” (Wayne State University, priority 2024, published 2025).

What was measured:
[1] = Clinical use of nitazoxanide in adult humans; assay type: in vivo, human; conditions: 500 mg (per adult) twice a day
[2] = in cells; cited from earlier work
[3] = test system: E. coli-induced placental inflammation; experiment: E. coli-induced placental inflammation model of preterm birth; assay type: in vivo; conditions: same dosage as in LPS model
Excerpt: Using the E. coli-induced placental inflammation model and methods similar to those described in Spencer et al. (PLoS One, 16(12): e0260370, 2021 doi: 10.1371/journal.pone.0260370), nitazoxanide therapy will be tested using the same dosage as above and in Purandare et al. (Placenta 140:66-71, 8 Jul. 2023; Purandare et al., bioRxiv, Feb. 1, 2023).

MNRR1 = experiment: MNRR1-luciferase reporter assay in HTR cells; assay type: cell-based; conditions: Homo sapiens; HTR8 cells, 24 h, relative to vehicle (DMSO); read-out: half-maximal effective concentration (EC50), activation of MNRR1 reporter
Description: FIGS. 1A-1D. Nitazoxanide's anti-inflammatory effects are via transcriptional activation of MNRR1. (FIG. 1A) Results of a screen of ˜2400 FDA-approved drugs and natural compounds identified to transcriptionally activate (>1), inhibit (<1), or not affect (=1) MNRR1. Each circle represents one drug and the MNRR1 activator (nitazoxanide (N)) has been highlighted in green. (FIG. 1B) Equal numbers of HTR cells overexpressing the MNRR1-luciferase reporter were plated on a 96 well plate and treated with increasing amounts of nitazoxanide or vehicle (DMSO) for 24 h. EC50 was calculated using the activation of MNRR1 reporter relative to vehicle treated cells using the Quest Graph^TM EC50 Calculator. (FIG. 1C) TNF transcript levels were measured in human placental cells. Actin was used as a housekeeping gene for normalization. […]
Transfections and luciferase reporter assays: HTR cells were transfected with the indicated plasmids, using TransFast transfection reagent (Promega, Madison, WI, USA) according to the manufacturer's protocol as previously described (Purandare et al., iScience, 25: 105342, 2022). […] EC50 was calculated by using the Quest Graph™ EC50 Calculator (AAT Bioquest, Inc., on the World Wide Web at aatbio.com/tools/ec50-calculator).

MELAS cybrid cells = experiment: Oxygen consumption of MELAS cybrid cells (Seahorse); assay type: cell-based, human; conditions: 10 μM, 48 h
Description: FIGS. 7A-7E: MNRR1 activation by tizoxanide enhances mtDNA biogenesis and mitophagy to shift heteroplasmy in MELAS cells. FIG. 7A: Oxygen consumption measured from MELAS cybrid cells treated with vehicle (DMSO) or tizoxanide (10 μM) for 48 h (n=4 biological replicates, error bars represent SE). FIG. 7B: Haelll restriction enzyme digestion of a PCR-amplified fragment of mtDNA harboring the m.3243A>G mutation from DW7 cells treated with vehicle (DMSO) or tizoxanide (10 μM) for 144 h. […] FIG. 7C: Genes identified using qPCR of MELAS cybrid cells stably overexpressing EV or MNRR1. FIG. 7D: MtDNA levels are shown relative to nuclear DNA (nDNA) (GAPDH) (n=5 biological replicates, error bars represent SE). […]
FIGS. 11A-11F: RBPJk and HIF2α compete for binding at the ORE in the MNRR1 promoter to regulate transcription. […] FIG. 11E: Oxygen consumption measured from Control or HIFα knockdown (KD) MELAS cybrid cells. […] FIG. 11F: Left, Oxygen consumption measured from MELAS cybrid cells treated with vehicle (DMSO) or PT2385 (10 μM), an inhibitor of HIF2α function, for 24 h. […]
Intact cellular oxygen consumption and measurement of ATP: Cellular oxygen consumption was measured with a Seahorse XFe24 Bioanalyzer (Agilent). Cells were plated at a concentration of 3.5×10^4 per well a day prior to treatment and basal oxygen consumption was measured 48 h after treatments, as described. […]

Row | SMILES | drug concentration in the blood [1] | fraction metabolized to tizoxanide [2] [%] | reducing or preventing pre-term birth [3] | EC50 (MNRR1) [nM] | oxygen consumption (MELAS cybrid cells)
1 | CC(=O)Oc1ccccc1C(=O)Nc1ncc([N+](=O)[O-])s1 [nitazoxanide, Nitazoxanide] | around 600 micromolar | > 97 | effective in reducing or preventing pre-term birth | 115 | –
2 | O=C(Nc1ncc([N+](=O)[O-])s1)c1ccccc1O [tizoxanide, Tizoxanide] | – | – | – | – | increased
